Measurements from patent US9249159B2, “Composition for treating hepatitis C virus, regulating phosphorylation of replicase” (Industry-Academic Cooperation Foundation, Yonsei University, priority 2011, dated 2016).

Tests used:
HCV NS5B = assay: NS5B phosphorylation in Huh7TR-NS cell (anti-p-Ser immunoprecipitation, anti-NS5B immunoblot); type: cell-based, hepatitis C virus; settings: 17-DMAG 50 nM or HA1077 20 μM, 48 hours
Method: The human hepatoma stable cell lines Huh7TR-4 and Huh7TR-NS [17], which express the tetracycline repressor and the HCV NS proteins (NS3-NS5) in a tetracycline-inducible manner, respectively, were maintained in the presence of blasticidin S (10 μg/mlL and Zeocine (100 μg/mL). NS protein expression in Huh7TR-NS was induced by addition of 1 μg/mL tetracycline for 24 h. The Huh7 cell-derived cell line R-1, supporting stable, autonomous replication of genotype 1b HCV subgenomic replicon RNA, was described previously. 17-DMAG, the PRK2 inhibitor, HA1077, and the inhibitor of phosphatidylinositol 3-kinase (PI3K), LY294002, were obtained from Sigma-Aldrich (St. Louis, Mo., USA) and Calbiochem Inc. (La Jolla, Calif., USA), and Biomol (Plymouth Meeting, Pa., USA), respectively. IFN-α was purchased from Sigma-Aldrich (1-4276).
For co-immunoprecipitation experiment, the cells were resuspended in lysis buffer A (100 mM Tris-HCl, pH 8.0, 150 mM NaCl, 1% Triton X-100, 10 mM NaF, 1 mM Na3VO4, 17.5 mM β-glycerophosphate) supplemented with an EDTA-free protease inhibitor cocktail (Roche Applied Science, Indianapolis, Ind., USA) and incubated on ice for 30 min. […]
Then, treatment with 17-DMAG (50 nM) or HA1077 (20 μM), a PRK2 inhibitor, was carried out for 48 hours. […] A case without treatment with an inhibitor was expressed as (−).

[1] = system: genotype 1b HCV subgenomic replicon (R-1 cell line); assay: HCV replication (HCV RNA by real-time RT-PCR, NS5B protein by Western blot) in R-1 subgenomic replicon cells; type: cell-based, hepatitis C virus genotype 1b; settings: for decrease of HCV RNA titers with respect to DMSO control: R-1 cell line, 20 μM, 48 hours
Source text: In order to check a PRK2 phosphorylation inhibition effect of the novel inhibitors obtained in Example 1, R-1 cell line harboring HCV subgenomic replicons was used.
The R-1 cell line was comprised of cis-acting RNA elements of 5′ and 3′-end untranslated regions (UTR) essential for replication of HCV RNA, a selection marker inserted to select a replicated RNA into a portion from which a structural protein coding site was removed, and a non-structural protein (NS3-NS5B)-coding gene required for replication. In the replicon, the selection marker was expressed by the HCV 5′-UTR and internal ribosome entry site (IRES) as a part of a coding gene of a core protein as a structural protein and capsid protein, and HCV non-structural proteins were expressed by IRES of EMCV. In order to obtain replicon cells, a HCV subgenomic replicon RNA was obtained by means of in vitro transcription by using a T7 RNA polymerase, free ribonucleotide was removed by using a spin column, and introduced into a hepatocellular carcinoma cell line by electroporation. In the presence of G418, a stable cell line, i.e. a cell line showing a resistance to G418 through replication of HCV subgenome, was obtained. Expression of the HCV non-structural proteins in this cell line was analyzed by Western blot to confirm that replication was being carried out, and the R-1 cell line was constructed. It was observed that an HCV RNA copy number was about 10^7 copies/mL by a quantitative real-time PCR analysis using a TaqMan probe. The R-1 cell line was a cell line in which HCV RNA replication was being carried out, and thus it could be used to evaluate an HCV replication inhibition effect of a PRK2 activity inhibitor.
Then, after the R-1 cell line was treated with each of 5 screened PRK2 inhibitors, HA1077 currently and clinically used as a PRK2 activity inhibitor, and Y27632 having a PRK2 activity inhibition effect at a final concentration of 20 μM for 48 hours, levels of HCV NS5B protein and HCV RNA in cell lysates (50 μg) were analyzed by Western blot and real-time RT-PCR.
(§1) To do so, after the two cell lines were treated with the compound #17 at higher concentrations (60 and 100 μM) than 20 μM for 48 hours, an HCV RNA genome level was checked by a real-time RT-PCR analysis. A value was a mean±standard deviation (SD) of three independent measurements. HCV RNA titer was quantified by real-time PCR analysis. Three independent experiments were performed in triplicate.
5 derivatives (#18 to #22: refer to FIG. 2) were produced based on the inhibitor #17 showing the best effect. After the R-1 cell line was treated with each of these inhibitors or HA1077 and Y27632 at a final concentration of 20 μM for 48 hours, an HCV RNA genome level was checked by a real-time RT-PCR analysis and expressed in % with respect to a control treated with DSMO. Three independent experiments were conducted repeatedly three times. Data were expressed by mean±SD of the three experiments.
(§2) Total RNA was extracted from R-1 or HCV (JFH1)-infected cells using TRIzol LS reagent (Invitrogen, Carlsbad, Calif., USA) and purified according to the manufacturer's instructions. HCV RNA levels were quantified by RT-PCR using a primer pair and TaqMan probe targeting a region within the HCV 5′-UTR as described previously. Cellular glyceraldehyde-3-phosphate dehydrogenase was used as an internal control. Assays were performed using the DyNAmo Probe 2-step qRT-PCR Kit (Finnzymes, Espoo, Finland) and a CHROMO4 continuous fluorescence detector (Bio-Rad, Hercules, Calif., USA), according to the manufacturer's instructions.
(§3) Therefore, anti-HCV activity of 17-DMAG in the R-1 cell was tested at a level lower than 50 nM. To do so, the R-1 cell was treated with a vehicle (0.25% DMSO) or 17-DMAG for 72 hours and the cell lysates (50 μg) and antibodies specific to the proteins were immunoblotted to measure levels of the proteins. An anti-α-tubulin antibody (lower end panel) was used as an internal loading control. […]

recombinant active PRK2 = recombinant active PRK2 (Homo sapiens, UniProt Q16513); assay: In vitro kinase assay: recombinant PRK2 phosphorylating HCV NS5B; type: biochemical; settings: gamma-32P ATP and 100 μM ATP, autoradiography
Method: Then, in order to test an HCV NS5B protein phosphorylation inhibition effect of the screened novel PRK2 inhibitor, in vitro kinase assay was carried out.
Using a recombinant active PRK2 and purified HCV NS5B protein as substrates, the screened inhibitors #11 and #17 were treated in the presence of gamma-^32P ATP and 100 μM ATP. The reaction mixture was separated by SDS-PAGE (8% gel), and a result thereof was checked by autoradiography.
Finally, PRK2 and HCV NS5B phosphorylation inhibition effects of the compounds #18, #19, #20, #21 and #22 as the derivatives of the compound #17 were analyzed through in vitro kinase assay.
A 1 μM recombinant PRK2 and 10 μM HCV NS5B were phosphorylated for 30 minutes in the presence of 10 μCi γ-^32P ATP and 100 μM ATP. The reaction mixture was separated by SDS-PAGE (8% gel), and a result thereof was checked by autoradiography.

PRK2 [2] = assay: PRK2 level in Huh7 cell by immunoblotting; type: cell-based; settings: 100 IU/ml IFN-α
PDK1 = PDK1 level and activation in R-1 cell by immunoblotting; type: cell-based; settings: 100 IU/ml, hourly for 6 hours
Source text: Total cell lysates from cells treated with inhibitors or IFN-α by using antibodies to PDK1, p-PDK1 (S241), PRK2, and p-PRK2 (T816) (products of Cell Signaling Technology, Inc., Beverly, Mass., USA) was used for immunoblotting. In order to detect PKC isoforms α, β, and γ, a polyclonal antibody to a consensus sequence present in three PKC (protein kinase C) isoforms α, β and γ (anti-pan-PKC; Zymed Laboratories, San Francisco, Calif., USA) was used. An anti-α-tubulin antibody (Oncogene Research Products, Cambridge, Mass., USA) was carried out in immunoblotting for checking whether or not the same amount of protein was loaded.
as §3, with “control. The levels of the proteins were measured by densitometric analysis of immunoblot, and the phosphorylated amounts and relative intensities calculated with respect to PDK1 and PDK2 were converted with respect to α-tubulin signals and then quantitated. As a result of three independent experiments showing similar results, a representative blot picture was illustrated.” for “control.”

PRK2 [3] = target: T1, PRK2 (Homo sapiens, UniProt Q16513); assay: PRK2 phosphorylation (Thr816) and PRK2 level in R-1 cells by Western blot; type: cell-based; settings: R-1 cell, 100 IU/ml, hourly for 6 hours
T1 construct: endogenous in cells; host or cells: R-1 (Huh7-derived HCV replicon cells) and Huh7
Method: After the R-1 cell line was treated with the PRK2 inhibitor at a final concentration of 10 or 20 μM for 48 hours, phosphorylation or not of Thr^816 residue essential for activity of PRK2 was analyzed by Western blot using a phospho-PRK2 antibody to measure an expression level of phosphorylated PRK2. Immunoblotting using an anti-α-tubulin antibody was carried out to check whether or not the same amount of protein was loaded.
Then, in order to check whether or not IFN-α affected a PDK1-PRK2 signaling pathway, the R-1 cell was treated with 100 IU/ml of IFN-α hourly for 6 hours. SDS-PAGE was carried out to the cell lysates, and immunoblotting was carried out. The immunoblotting with anti-α-tubulin antibody was used as an internal control for loading. A representative result from one of the three independent experiments showing a similar result was illustrated.

[4] = system: genotype 2a HCV (JFH1)-infected Huh7 cells; assay: HCV RNA level in Huh7 cells infected with HCV (JFH1); type: cell-based, hepatitis C virus genotype 2a; settings: JFH1-infected Huh7 cell, 100 IU/mL alone, 72 hours
Method: as §1
Full-length, infectious HCV RNA of the genotype 2a HCV clone JFH1 was prepared by in vitro transcription using the MEGAscript T7 kit (Ambion, Austin, Tex., USA) and electroporated into Huh7 cells as described previously. Briefly, at 72 h post electroporation, culture medium was collected, cleared by low-speed centrifugation, and passed through a 0.45-μm filter (Millipore, Billerica, Mass., USA) before being used for infection of Huh7 cells. Cells were infected with HCV at a multiplicity of infection of 0.3 by adsorption for 3 h with periodic rocking, then washed three times with phosphate-buffered saline (PBS) and maintained in complete DMEM. […]
as §2, with “Cellular glyceraldehyde-3-phosphate dehydrogenase was used as an internal control.” left out
In order to analyze whether or not 17-DMAG can inhibit replication in a cell infected with HCV, an experiment was carried out with the genotype 2a HCV infectious clone JFH1, which produces infectious virions in Huh7 or Huh7-derived cell lines. […] After 72 hours, total cellular RNA was extracted and HCV remaining in the infected cell was analyzed by quantitative RT-PCR.

recombinant active PRK2, sequence (Q16513 whole entry): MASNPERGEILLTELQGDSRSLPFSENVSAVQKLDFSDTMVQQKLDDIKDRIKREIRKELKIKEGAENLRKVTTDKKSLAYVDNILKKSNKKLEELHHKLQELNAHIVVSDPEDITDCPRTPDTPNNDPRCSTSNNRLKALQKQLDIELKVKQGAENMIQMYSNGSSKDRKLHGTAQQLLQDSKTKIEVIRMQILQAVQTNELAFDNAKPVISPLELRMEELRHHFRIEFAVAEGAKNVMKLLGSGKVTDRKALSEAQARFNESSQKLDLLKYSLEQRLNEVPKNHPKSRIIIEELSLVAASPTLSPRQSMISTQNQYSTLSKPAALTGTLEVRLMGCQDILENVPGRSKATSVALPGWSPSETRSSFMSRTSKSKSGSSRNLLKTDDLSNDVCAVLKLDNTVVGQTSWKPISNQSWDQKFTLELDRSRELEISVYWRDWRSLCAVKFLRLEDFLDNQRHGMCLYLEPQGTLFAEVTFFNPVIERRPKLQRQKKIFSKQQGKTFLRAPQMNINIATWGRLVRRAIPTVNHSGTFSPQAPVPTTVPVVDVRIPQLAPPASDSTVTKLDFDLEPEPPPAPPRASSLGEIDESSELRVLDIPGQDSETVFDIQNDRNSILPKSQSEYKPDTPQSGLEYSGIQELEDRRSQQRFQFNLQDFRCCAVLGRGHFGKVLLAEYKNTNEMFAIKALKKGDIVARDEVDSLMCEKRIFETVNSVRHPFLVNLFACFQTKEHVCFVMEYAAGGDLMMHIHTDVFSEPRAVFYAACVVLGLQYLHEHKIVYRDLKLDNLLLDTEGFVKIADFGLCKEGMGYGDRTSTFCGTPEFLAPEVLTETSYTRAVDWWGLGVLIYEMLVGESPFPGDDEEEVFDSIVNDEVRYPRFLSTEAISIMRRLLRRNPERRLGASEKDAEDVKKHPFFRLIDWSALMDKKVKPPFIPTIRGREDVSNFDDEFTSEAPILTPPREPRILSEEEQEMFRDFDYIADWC
T1 sequence (Q16513 whole entry): as above

Compound: O=S(=O)(c1cccc2cnccc12)N1CCCNCC1 [HA1077]
- NS5B phosphorylation (HCV NS5B): also inhibited NS5B phosphorylation
- decrease of HCV RNA titers with respect to DMSO control [1]: 40%
- anti-HCV activity in combined treatment with IFN-α ([1]; R-1 cell, HA1077 20 μM combined with IFN-α 100 IU/ml): anti-HCV activity of IFN-α was improved

Compound: C[C@@H](N)[C@H]1CC[C@H](C(=O)Nc2ccncc2)CC1 [Y27632]
- decrease of HCV RNA titers with respect to DMSO control [1]: 49%

Compound: O=C(Nc1ccncc1)c1ccc[nH]c1=O [compound 20, 2-oxo-N-(4-pyridinyl)-1,2-dihydro-3-pyridinecarboxamide]
- decrease of HCV RNA titers with respect to DMSO control [1]: approximately 60%

Compound: O=C(Nc1ccc2[nH]cnc2c1)C1CCCCC1 [compound #11, cyclohexanecarboxylic acid (1H-benzoimidazole-5-yl)-amide]
- inhibition of in vitro phosphorylation of HCV NS5B protein (recombinant active PRK2): inhibit phosphorylation of HCV NS5B protein

Compound: IFN-α
- PDK1 and PRK2 contents and activation (PRK2 [2]): A similar result was observed
- decrease of content of HCV RNA ([1]; R-1 cell, 100 IU/ml alone, 72 hours): approximately 80%
- activation of PDK1 (PDK1): any change in activation of PDK1 in the treated cell was not observed
- p-PRK2 content or PRK2 content (PRK2 [3]): any significant change in p-PRK2 content or PRK2 content was not observed
- inhibition of virus RNA replication [4]: about 90%
